Reference: patent publication US20220213063A1, “N-[l-(5-BROMO-2-PYRIMIDIN-2-YL-1,2,4-TRIAZOL-3-YL)ETHYL]-2-CYCLOPROPYL-6-(TRIFLUOROMETHYL)PYRIDINE-4-CARBOXAMIDE DERIVATIVES AND RELATED COMPOUNDS AS INSECTICIDES” (SYNGENTA CROP PROTECTION AG, priority 2019, published 2022)

How the values were obtained:
Format in all cases: in vivo
[1] = test system: Diabrotica Balteata (Corn Root Worm); test: Example B1: Diabrotica balteata (corn root worm), sprayed maize sprouts; conditions: 96 h, application rate of 200 ppm, L2 larvae, 4 days after infestation, in comparison to untreated samples, read-out: control in at least one of the two categories (mortality or growth inhibition)
Experimental: Example B1: Diabrotica Balteata (Corn Root Worm)
Maize sprouts placed onto an agar layer in 24-well microtiter plates were treated with aqueous test solutions prepared from 10'000 ppm DMSO stock solutions by spraying. After drying, the plates were infested with L2 larvae (6 to 10 per well). The samples were assessed for mortality and growth inhibition in comparison to untreated samples 4 days after infestation.
The following compounds gave an effect of at least 80% control in at least one of the two categories (mortality or growth inhibition) at an application rate of 200 ppm: […]

[2] = test system: Chilo suppressalis (Striped Rice Stemborer); test: Example B4: Chilo suppressalis (striped rice stemborer), artificial diet; conditions: 144 h, application rate of 200 ppm, L2 larvae, 6 days after infestation, in comparison to untreated samples, read-out: control in at least one of the three categories (mortality, anti-feedant or growth inhibition)
Experimental: Example B4: Chilo suppressalis (Striped Rice Stemborer)
24-well microtiter plates with artificial diet were treated with aqueous test solutions prepared from 10'000 ppm DMSO stock solutions by pipetting. After drying, the plates were infested with L2 larvae (6-8 per well). The samples were assessed for mortality, anti-feeding effect, and growth inhibition in comparison to untreated samples 6 days after infestation. Control of Chilo suppressalis by a test sample is given when at least one of the categories mortality, anti-feedant effect, and growth inhibition is higher than the untreated sample.

[3] = test system: Plutella xylostella (Diamond Back Moth); test: Example B5: Plutella xylostella (diamond back moth), artificial diet; conditions: 192 h, application rate of 200 ppm, eggs, 8 days after infestation, in comparison to untreated samples, read-out: effect in at least one of the two categories (mortality or growth inhibition)
Experimental: Example B5: Plutella xylostella (Diamond Back Moth)
24-well microtiter plates with artificial diet were treated with aqueous test solutions prepared from 10'000 ppm DMSO stock solutions by pipetting. After drying, Plutella eggs were pipetted through a plastic stencil onto a gel blotting paper and the plate was closed with it. The samples were assessed for mortality and growth inhibition in comparison to untreated samples 8 days after infestation.
The following compounds gave an effect of at least 80% in at least one of the two categories (mortality or growth inhibition) at an application rate of 200 ppm: […]

[4] = test system: Spodoptera littoralis (Egyptian Cotton Leaf Worm); test: Example B9: Spodoptera littoralis (Egyptian cotton leaf worm), sprayed cotton leaf discs; conditions: foliar, 72 h, application rate of 200 ppm, L1 larvae, 3 days after infestation, in comparison to untreated samples, read-out: control in at least one of the three categories (mortality, anti-feedant effect, or growth inhibition)
Experimental: Example B9: Spodoptera littoralis (Egyptian Cotton Leaf Worm)
Cotton leaf discs were placed onto agar in 24-well microtiter plates and sprayed with aqueous test solutions prepared from 10'000 ppm DMSO stock solutions. After drying the leaf discs were infested with five L1 larvae. The samples were assessed for mortality, anti-feeding effect, and growth inhibition in comparison to untreated samples 3 days after infestation. Control of Spodoptera littoralis by a test sample is given when at least one of the categories mortality, anti-feedant effect, and growth inhibition is higher than the untreated sample.

[5] = test system: Frankliniella occidentalis (Western Flower Thrips); test: Example B3: Frankliniella occidentalis (western flower thrips), feeding/contact activity; conditions: 168 h, application rate of 200 ppm, population of mixed ages, 7 days after infestation
Experimental: Example B3: Frankliniella occidentalis (Western Flower Thrips):Feeding/Contact Activity
Sunflower leaf discs were placed on agar in 24-well microtiter plates and sprayed with aqueous test solutions prepared from 10'000 DMSO stock solutions. After drying the leaf discs were infested with a Frankliniella population of mixed ages. The samples were assessed for mortality 7 days after infestation.

[6] = test system: Myzus persicae (Green Peach Aphid); test: Example B8: Myzus persicae (green peach aphid), intrinsic activity; conditions: 120 h, test rate of 12 ppm, mixed with sucrose solution, 5 days after infestation
Excerpt: Example B8: Myzus persicae (Green Peach Aphid): Intrinsic Activity
Test compounds prepared from 10'000 ppm DMSO stock solutions were applied by pipette into 24-well microtiter plates and mixed with sucrose solution. The plates were closed with a stretched Parafilm. A plastic stencil with 24 holes was placed onto the plate and infested pea seedlings were placed directly on the Parafilm. The infested plate was closed with a gel blotting paper and another plastic stencil and then turned upside down. The samples were assessed for mortality 5 days after infestation.

CC(NC(=O)c1cc(C(F)(F)F)nc(C2(C#N)CC2)c1)c1nc(Br)nn1-c1ccc(F)cn1 (stereo not shown) [Compound P1, N-[1-[5-bromo-2-(5-fluoro-2-pyridyl)-1,2,4-triazol-3-yl]ethyl]-2-(1-cyanocyclopropyl)-6-(trifluoromethyl)pyridine-4-carboxamide]
≥ 80%: percent control (mortality or growth inhibition) at 200 ppm [1] | percent control (mortality, anti-feedant effect or growth inhibition) at 200 ppm [2] | percent effect (mortality or growth inhibition) at 200 ppm [3] | percent control (mortality, anti-feedant effect or growth inhibition) at 200 ppm [4]

CC(NC(=O)c1cc(C(F)(F)F)nc(C2(C#N)CC2)c1)c1nc(Br)nn1-c1ncccn1 (stereo not shown) [Compound P3, N-[1-(5-bromo-2-pyrimidin-2-yl-1,2,4-triazol-3-yl)ethyl]-2-(1-cyanocyclopropyl)-6-(trifluoromethyl)pyridine-4-carboxamide]
≥ 80%: percent control (mortality or growth inhibition) at 200 ppm [1] | mortality at 200 ppm [5] | percent control (mortality, anti-feedant effect or growth inhibition) at 200 ppm [2] | percent effect (mortality or growth inhibition) at 200 ppm [3] | mortality at 12 ppm [6] | percent control (mortality, anti-feedant effect or growth inhibition) at 200 ppm [4]

CC(NC(=O)c1cc(C(F)(F)F)cc(C(F)(F)C2CC2)c1)c1nc(Br)nn1-c1ncccn1 (stereo not shown) [Compound P4, N-[1-(5-bromo-2-pyrimidin-2-yl-1,2,4-triazol-3-yl)ethyl]-3-[cyclopropyl(difluoro)methyl]-5-(trifluoromethyl)benzamide]
≥ 80%: percent control (mortality or growth inhibition) at 200 ppm [1] | percent control (mortality, anti-feedant effect or growth inhibition) at 200 ppm [2] | percent effect (mortality or growth inhibition) at 200 ppm [3] | percent control (mortality, anti-feedant effect or growth inhibition) at 200 ppm [4]

CC(NC(=O)c1cc(C2CC2)nc(C(F)(F)F)c1)c1nc(Br)nn1-c1ncccn1 (stereo not shown) [Compound P5, N-[1-(5-bromo-2-pyrimidin-2-yl-1,2,4-triazol-3-yl)ethyl]-2-cyclopropyl-6-(trifluoromethyl)pyridine-4-carboxamide]
≥ 80%: percent control (mortality or growth inhibition) at 200 ppm [1] | percent control (mortality, anti-feedant effect or growth inhibition) at 200 ppm [2] | percent effect (mortality or growth inhibition) at 200 ppm [3] | percent control (mortality, anti-feedant effect or growth inhibition) at 200 ppm [4]

CC(NC(=O)c1cc(C2CC2)cc(C(F)(F)F)c1)c1nc(Br)nn1-c1ncccn1 (stereo not shown) [Compound P6, N-[1-(5-bromo-2-pyrimidin-2-yl-1,2,4-triazol-3-yl)ethyl]-3-cyclopropyl-5-(trifluoromethyl)benzamide]
≥ 80%: percent control (mortality or growth inhibition) at 200 ppm [1] | percent control (mortality, anti-feedant effect or growth inhibition) at 200 ppm [2] | percent effect (mortality or growth inhibition) at 200 ppm [3] | percent control (mortality, anti-feedant effect or growth inhibition) at 200 ppm [4]

CC(NC(=O)c1cc(C2CC2C(F)(F)F)cc(C(F)(F)F)c1)c1nc(Br)nn1-c1ncccn1 (stereo not shown) [Compound P7, N-[1-(5-bromo-2-pyrimidin-2-yl-1,2,4-triazol-3-yl)ethyl]-3-(trifluoromethyl)-5-[2-(trifluoromethyl)cyclopropyl]benzamide]
≥ 80%: percent control (mortality or growth inhibition) at 200 ppm [1] | percent control (mortality, anti-feedant effect or growth inhibition) at 200 ppm [2] | percent effect (mortality or growth inhibition) at 200 ppm [3] | percent control (mortality, anti-feedant effect or growth inhibition) at 200 ppm [4]

CC(NC(=O)c1cc(C2CC2)cc(C(F)(F)F)c1)c1nc(Br)nn1-c1ccc(F)cn1 (stereo not shown) [Compound P8, N-[1-[5-bromo-2-(5-fluoro-2-pyridyl)-1,2,4-triazol-3-yl]ethyl]-3-cyclopropyl-5-(trifluoromethyl)benzamide]
≥ 80%: percent control (mortality, anti-feedant effect or growth inhibition) at 200 ppm [2] | percent effect (mortality or growth inhibition) at 200 ppm [3]
